# Measurements taken from the Kinase Knowledgebase extract (Sharma et al. 2016).
# Target: CDK2 (human) (UniProt P24941)
# Test: Enzyme Assay
# Settings: concentration not given here
row,Compound,inhibition [%]
1,Nc1nc(NC2CCN(C(=O)c3ccc(F)c(F)c3)CC2)sc1C(=O)c1c(F)cccc1F,56
2,CC(=O)N(C)CC(=O)N1CCC(Nc2nc(N)c(C(=O)c3c(F)cccc3F)s2)CC1,40
3,CC(C)=CC1C(C(=O)N2CCC(Nc3nc(N)c(C(=O)c4c(F)cccc4F)s3)CC2)C1(C)C (centres undefined),10
4,Nc1nc(NC2CCN(C(=O)c3ccccc3OC(F)(F)F)CC2)sc1C(=O)c1c(F)cccc1F,-6
5,Nc1nc(NC2CCN(C(=O)CCC(F)(F)F)CC2)sc1C(=O)c1c(F)cccc1F,45
6,CCCCCCCC(=O)N1CCC(Nc2nc(N)c(C(=O)c3c(F)cccc3F)s2)CC1,53
7,Nc1nc(NC2CCN(C(=O)Cc3cc(F)cc(F)c3F)CC2)sc1C(=O)c1c(F)cccc1F,44
8,Nc1nc(NC2CCN(C(=O)Cc3ccccc3O)CC2)sc1C(=O)c1c(F)cccc1F,48
9,CCCCC(O)C(=O)N1CCC(Nc2nc(N)c(C(=O)c3c(F)cccc3F)s2)CC1 (centres undefined),16
10,CC1CCCC(C(=O)N2CCC(Nc3nc(N)c(C(=O)c4c(F)cccc4F)s3)CC2)C1 (centres undefined),74
11,Nc1nc(NC2CCN(C(=O)C(O)c3cccc(O)c3)CC2)sc1C(=O)c1c(F)cccc1F (centres undefined),47
12,Nc1nc(NC2CCN(C(=O)c3cc(F)c(F)c(F)c3)CC2)sc1C(=O)c1c(F)cccc1F,65
13,CC1(C(=O)N2CCC(Nc3nc(N)c(C(=O)c4c(F)cccc4F)s3)CC2)CCCCC1,-5
14,CN(C)C(=O)N1CCC(Nc2nc(N)c(C(=O)c3c(F)cccc3F)s2)CC1,-43
15,CC(=O)CC(=O)C(=O)N1CCC(Nc2nc(N)c(C(=O)c3c(F)cccc3F)s2)CC1,50
16,COCCOCCOCC(=O)N1CCC(Nc2nc(N)c(C(=O)c3c(F)cccc3F)s2)CC1,38
17,COc1ccc(C(=O)N2CCC(Nc3nc(N)c(C(=O)c4c(F)cccc4F)s3)CC2)c(OC)n1,51
18,Cc1ccc(C2(C(=O)N3CCC(Nc4nc(N)c(C(=O)c5c(F)cccc5F)s4)CC3)CC2)cc1,41
19,NC(=S)Nc1cccc(C(=O)N2CCC(Nc3nc(N)c(C(=O)c4c(F)cccc4F)s3)CC2)c1,75
20,COc1ccc(CC(=O)N2CCC(Nc3nc(N)c(C(=O)c4c(F)cccc4F)s3)CC2)cc1C,62
21,CC(SCc1ccccc1)C(=O)N1CCC(Nc2nc(N)c(C(=O)c3c(F)cccc3F)s2)CC1 (centres undefined),50
22,Nc1nc(NC2CCN(C(=O)c3cnnc4ccccc34)CC2)sc1C(=O)c1c(F)cccc1F,28
23,CC(C)CCCC(=O)N1CCC(Nc2nc(N)c(C(=O)c3c(F)cccc3F)s2)CC1,71

row,Compound,inhibition [%]
1,C[C@@H](C(=O)N1CCC(Nc2nc(N)c(C(=O)c3c(F)cccc3F)s2)CC1)c1ccccc1,21
2,CCC(O)(CC)C(=O)N1CCC(Nc2nc(N)c(C(=O)c3c(F)cccc3F)s2)CC1,17
3,CC1(CCC(=O)N2CCC(Nc3nc(N)c(C(=O)c4c(F)cccc4F)s3)CC2)SCCS1,78
4,Cc1cccc(Cl)c1C(=O)N1CCC(Nc2nc(N)c(C(=O)c3c(F)cccc3F)s2)CC1,47
5,Nc1nc(NC2CCN(C(=O)c3ccoc3)CC2)sc1C(=O)c1c(F)cccc1F,34
6,Nc1nc(NC2CCN(C(=O)/C=C/c3cccc(F)c3)CC2)sc1C(=O)c1c(F)cccc1F,70
7,Cc1cc(C)c(S(=O)(=O)N2CCC(Nc3nc(N)c(C(=O)c4c(F)cccc4F)s3)CC2)c(C)c1,-14
8,Nc1nc(NC2CCN(C(=O)c3ccc(F)c4ccccc34)CC2)sc1C(=O)c1c(F)cccc1F,30
9,CCCCCCCC(CC)C(=O)N1CCC(Nc2nc(N)c(C(=O)c3c(F)cccc3F)s2)CC1 (centres undefined),25
10,N#Cc1ccc(/C=C/C(=O)N2CCC(Nc3nc(N)c(C(=O)c4c(F)cccc4F)s3)CC2)cc1,41
11,CCCCC(C)C(=O)N1CCC(Nc2nc(N)c(C(=O)c3c(F)cccc3F)s2)CC1 (centres undefined),-2
12,CC1CC1C(=O)N1CCC(Nc2nc(N)c(C(=O)c3c(F)cccc3F)s2)CC1 (centres undefined),-10
13,CCSCC(=O)N1CCC(Nc2nc(N)c(C(=O)c3c(F)cccc3F)s2)CC1,63
14,C=CCc1ccccc1OCC(=O)N1CCC(Nc2nc(N)c(C(=O)c3c(F)cccc3F)s2)CC1,76
15,Nc1nc(NC2CCN(C(=O)Cc3cc(F)c(F)c(F)c3)CC2)sc1C(=O)c1c(F)cccc1F,57
16,CC(C)C(O)C(=O)N1CCC(Nc2nc(N)c(C(=O)c3c(F)cccc3F)s2)CC1 (centres undefined),27
17,CN(C)[C@@H](Cc1ccccc1)C(=O)N1CCC(Nc2nc(N)c(C(=O)c3c(F)cccc3F)s2)CC1,10
18,Cc1cc(C(=O)N2CCC(Nc3nc(N)c(C(=O)c4c(F)cccc4F)s3)CC2)nn1C,40
19,Cc1cc(F)ccc1OCC(=O)N1CCC(Nc2nc(N)c(C(=O)c3c(F)cccc3F)s2)CC1,80
20,CCCCOc1ccc(C(C)(C)CC)cc1S(=O)(=O)N1CCC(Nc2nc(N)c(C(=O)c3c(F)cccc3F)s2)CC1,-30
21,Cc1ncccc1C(=O)N1CCC(Nc2nc(N)c(C(=O)c3c(F)cccc3F)s2)CC1,52
22,Nc1nc(NC2CCN(C(=O)C3(c4ccccc4)CCCC3)CC2)sc1C(=O)c1c(F)cccc1F,-13
23,Nc1nc(NC2CCN(C(=O)/C(F)=C/c3ccccc3)CC2)sc1C(=O)c1c(F)cccc1F,64

row,Compound,inhibition [%]
1,CCCC[C@H]1CC[C@H](C(=O)N2CCC(Nc3nc(N)c(C(=O)c4c(F)cccc4F)s3)CC2)CC1,45
2,CCCCOc1ccc(C(C)(C)CC(C)(C)C)cc1S(=O)(=O)N1CCC(Nc2nc(N)c(C(=O)c3c(F)cccc3F)s2)CC1,-28
3,CC(=O)CC(C(=O)N1CCC(Nc2nc(N)c(C(=O)c3c(F)cccc3F)s2)CC1)c1ccccc1 (centres undefined),17
4,Nc1nc(NC2CCN(C(=O)c3ccc4c(c3)C(=O)OC4=O)CC2)sc1C(=O)c1c(F)cccc1F,53
5,Nc1nc(NC2CCN(C(=O)C(O)c3cc(F)cc(F)c3)CC2)sc1C(=O)c1c(F)cccc1F (centres undefined),52
6,Nc1cc(C(=O)N2CCC(Nc3nc(N)c(C(=O)c4c(F)cccc4F)s3)CC2)ccc1Cl,50
7,Nc1nc(NC2CCN(C(=O)CCc3cccc(O)c3)CC2)sc1C(=O)c1c(F)cccc1F,40
8,CCCSc1ncccc1C(=O)N1CCC(Nc2nc(N)c(C(=O)c3c(F)cccc3F)s2)CC1,44
9,Nc1ccc(C(=O)NCC(=O)N2CCC(Nc3nc(N)c(C(=O)c4c(F)cccc4F)s3)CC2)cc1,65
10,CCOc1cccc(CC(=O)N2CCC(Nc3nc(N)c(C(=O)c4c(F)cccc4F)s3)CC2)c1,77
11,NC(=S)Nc1ccc(C(=O)N2CCC(Nc3nc(N)c(C(=O)c4c(F)cccc4F)s3)CC2)cc1,73
12,Nc1nc(NC2CCN(S(=O)(=O)c3ccc(O)c(C(=O)O)c3)CC2)sc1C(=O)c1c(F)cccc1F,-16
13,Cc1cc(C)c(/C=C/C(=O)N2CCC(Nc3nc(N)c(C(=O)c4c(F)cccc4F)s3)CC2)cc1C,76
14,Nc1nc(NC2CCN(C(=O)c3cnccc3C(F)(F)F)CC2)sc1C(=O)c1c(F)cccc1F,18
15,Nc1nc(NC2CCN(C(=O)C(O)c3ccccc3)CC2)sc1C(=O)c1c(F)cccc1F (centres undefined),75
16,Nc1nc(NC2CCN(C(=O)c3cccnc3)CC2)sc1C(=O)c1c(F)cccc1F,28
17,Cc1cc(Cl)ccc1C(=O)N1CCC(Nc2nc(N)c(C(=O)c3c(F)cccc3F)s2)CC1,45
18,Nc1nc(NC2CCN(C(=O)c3cccc4ccccc34)CC2)sc1C(=O)c1c(F)cccc1F,55
19,CS(=O)(=O)CS(=O)(=O)N1CCC(Nc2nc(N)c(C(=O)c3c(F)cccc3F)s2)CC1,-23
20,CCOC(=O)N1CCC(Nc2nc(N)c(C(=O)c3c(F)cccc3F)s2)CC1,-13
21,CN(C)c1ccc(N=Nc2ccc(S(=O)(=O)N3CCC(Nc4nc(N)c(C(=O)c5c(F)cccc5F)s4)CC3)cc2)cc1,-20
22,CC(CO)(CO)C(=O)N1CCC(Nc2nc(N)c(C(=O)c3c(F)cccc3F)s2)CC1,17
23,Nc1nc(NC2CCN(C(=O)c3cnc4ccccc4n3)CC2)sc1C(=O)c1c(F)cccc1F,61

row,Compound,inhibition [%]
1,Nc1nc(NC2CCN(C(=O)C(O)c3cc(F)ccc3F)CC2)sc1C(=O)c1c(F)cccc1F (centres undefined),57
2,COc1ccc(OCC(=O)N2CCC(Nc3nc(N)c(C(=O)c4c(F)cccc4F)s3)CC2)cc1,74
3,Nc1nc(NC2CCN(C(=O)/C=C/c3ccc(F)c(F)c3)CC2)sc1C(=O)c1c(F)cccc1F,61
4,Nc1nc(NC2CCN(C(=O)c3ccc4c(c3)CCO4)CC2)sc1C(=O)c1c(F)cccc1F,83
5,CC(=O)Nc1cc(C(=O)N2CCC(Nc3nc(N)c(C(=O)c4c(F)cccc4F)s3)CC2)ccc1C,64
6,Cc1ccc(OCC(=O)N2CCC(Nc3nc(N)c(C(=O)c4c(F)cccc4F)s3)CC2)cc1C,52
7,Cc1cc(C(=O)N2CCC(Nc3nc(N)c(C(=O)c4c(F)cccc4F)s3)CC2)ccc1Cl,51
8,Nc1nc(NC2CCN(C(=O)/C=C/c3ccc(O)cc3)CC2)sc1C(=O)c1c(F)cccc1F,66
9,Nc1nc(NC2CCN(C(=O)C(=O)c3c[nH]c4ccccc34)CC2)sc1C(=O)c1c(F)cccc1F,-31
10,COc1ccccc1/C=C\C(=O)N1CCC(Nc2nc(N)c(C(=O)c3c(F)cccc3F)s2)CC1,70
11,CC(C)(O)C(=O)N1CCC(Nc2nc(N)c(C(=O)c3c(F)cccc3F)s2)CC1,50
12,Nc1nc(NC2CCN(C(=O)c3ccc(-n4cccc4)cc3)CC2)sc1C(=O)c1c(F)cccc1F,69
13,CCCC/C=C/CC(=O)N1CCC(Nc2nc(N)c(C(=O)c3c(F)cccc3F)s2)CC1,22
14,CC1(C)OC(=O)CC1C(=O)N1CCC(Nc2nc(N)c(C(=O)c3c(F)cccc3F)s2)CC1 (centres undefined),79
15,Nc1nc(NC2CCN(C(=O)CCN3CCCCC3)CC2)sc1C(=O)c1c(F)cccc1F,15
16,Nc1nc(NC2CCN(C(=O)CCC(=O)c3ccc(F)cc3)CC2)sc1C(=O)c1c(F)cccc1F,7
17,Nc1nc(NC2CCN(C(=O)c3ccccc3C(F)(F)F)CC2)sc1C(=O)c1c(F)cccc1F,-12
18,Nc1nc(NC2CCN(C(=O)CCCc3cccs3)CC2)sc1C(=O)c1c(F)cccc1F,65
19,CS(=O)(=O)CC(=O)N1CCC(Nc2nc(N)c(C(=O)c3c(F)cccc3F)s2)CC1,45
20,CC1CCCCC1C(=O)N1CCC(Nc2nc(N)c(C(=O)c3c(F)cccc3F)s2)CC1 (centres undefined),43
